Here are results for one compound from paper PMC4171606, “A novel copper(I) complex induces ER-stress-mediated apoptosis and sensitizes B-acute lymphoblastic leukemia cells to chemotherapeutic agents” (Oncotarget, 2014).

Type in all cases: cell-based, human
Series [1] has as its system Bcl-2. As to the kind of experiment: Western blot, Bcl-2. Particulars: SEM and RS4;11, CP 2.5 μM. Here is the method:
(§1) FIGURE 2 CP induces caspase-dependent apoptosis without mitochondria involvement (A) Assessment of mitochondrial membrane potential (ΔΨmt) after treatment of RS4;11 and SEM cells with CP (2.5 μM) for the indicated times. Cells were stained with the fluorescent probe JC-1. Data are represented as mean ± S.E.M. of three independent experiments. (B) Flow cytometric analysis of RS4;11 and SEM cells treated with CP (2.5 μM) for 24 h showing cytochrome c labeled with a monoclonal antibody conjugated to FITC. Representative image of three experiments with similar results. (C) Cells were incubated with CP 2.5 μM and 5 μM in the presence or absence of the pan-caspase inhibitor z-VAD.fmk (100 μM). Cell viability was determined after 48 h by MTT assay. Data are represented as mean ± S.E.M. of three independent experiments performed in triplicate. *p<0.01 vs CP alone. (D) Western blot analysis of Bcl-2, cleaved caspase-12, caspase-9, cleaved caspase-7, caspase-3 and PARP after treatment of SEM and RS4;11 cells with CP (2.5 μM) for the indicated times. To confirm equal protein loading, each membrane was stripped and reprobed with anti-β-actin antibody. […]
(§2) Cells were treated with CP and, after different times, were collected, centrifuged and washed with ice cold phosphate-buffered saline (PBS). […] The protein concentration in the supernatant was determined using the BCA protein assay (Pierce, Italy). […]

Series [2] relates to RS4;11, SEM, Jurkat and THP-1 cell lines and PBMC from healthy donors. In words: Cellular uptake, intracellular copper by GF-AAS. Particulars: 6.25, 12.5 and 25 μM CP, 24 h, leukemic cells vs healthy PBMC. The method, then: In an attempt to correlate the cytotoxic activity of CP with its cellular uptake, the intracellular copper content was evaluated in RS4;11, SEM, Jurkat and THP-1 cell lines and PBMC from healthy donors treated for 24 h with increasing concentrations of CP. The intracellular copper amount (Figure 1, panel A) was quantified by GF-AAS analysis (Graphite Furnace Atomic Absorption Spectrometry).
FIGURE 1 CP uptake and effects on cell cycle and apoptosis induction A) RS4;11, SEM, THP1, Jurkat cell lines and healthy PBMC were incubated with 6.25, 12.5 and 25 μM of CP for 24 h. The intracellular accumulation of CP was detected by GF-AAS analysis. B) SEM and RS4;11 cells were treated with the indicated concentrations of CP for 24 h, cell cycle distribution and Sub-G1 contents were analyzed by flow cytometry after cell staining with PI. The percentages of each phase of the cell cycle (G1, S, G2/M) were calculated on living cells whereas the percentages of cells with hypodiploid DNA content peak (subG1) was referred to cell population characterized by the appearance of subG1 peak. C) SEM and RS4;11 cells were incubated with 2.5 μM CP for the indicated times and analyzed by flow cytometry after double staining with Annexin-V-FITC and PI. Data are represented as mean ± S.E.M. of three independent experiments. […]

Series [3] deals with SEM (B-acute lymphoblastic leukemia). As to the kind of experiment: MTT growth inhibition, 72 h. To be noted: mean ± SE. Here is the method:
(§3) [Cu(thp)4][PF6] (CP) was evaluated for its growth inhibition activity on a panel of twelve different human leukemia cell lines (five B-acute lymphoblastic leukemia, three T-acute lymphoblastic leukemia, three acute myeloid leukemia and one chronic myeloid leukemia). Cells were treated for 72 h with CP and cell viability was evaluated by MTT test. […] This abnormal high expression of proteasomal proteins and mRNA seem to be correlated to the hyperproliferation of these cancer cells and to the sensitivity towards proteasome inhibitors.
(§4) The human leukemia cell lines RS 4;11, SEM, REH, RCH-ACV, MHH-CALL2, Jurkat, CCRF-CEM, HSB2, HL-60, K562, THP-1, MV4;11 were purchased from the American Type Culture Collection. Cells were cultured in RPMI 1640 (Life Technologies, Italy) supplemented with 10% fetal bovine serum (FBS), glutamine (2 mM; Life Technologies, Italy), penicillin (100 U/ml; Life Technologies, Italy) and streptomycin (100 μg/ml; Life Technologies, Italy), and maintained at 37°C in a humidified atmosphere with 5% CO2. The cytotoxic activity of CP was determined using a standard 3-[4,5-dimethylthiazol-2-yl]-2,5-diphenyltetrazodium bromide (MTT) based colorimetric assay (Sigma-Aldrich, Italy). Briefly, cells were seeded at a density of 2×10^4 cells/well in 96-well microtiter plates. After 24 h, cells were exposed to the test compound. After different times, cell survival was determined by the addition of an MTT solution as previously described.

Series [4] concerns THP-1 (acute myeloid leukemia). As to the kind of experiment: MTT growth inhibition, 72 h. To be noted: THP-1, 72 h, mean ± SE. The method, then: as §3, §4
Series [5] concerns REH (B-acute lymphoblastic leukemia). As to the kind of experiment: MTT growth inhibition, 72 h. Particulars: mean ± SE. The method, then: as §3, §4
In series [6] the test system is caspase-12. In words: Western blot, cleaved caspase-12. Here is the method:
as §1, §2

Structures are written as SMILES. Some results are limits rather than exact numbers.

With `F[P-](F)(F)(F)(F)F.OCP(CO)CO.OCP(CO)CO.OCP(CO)CO.OCP(CO)CO.[Cu+]` [CP, [Cu(thp)4][PF6]], the “time at which decrease of Bcl-2 expression is detectable” value in series [1] was at least 3 h. Moreover, the intracellular copper content entry in series [2] is on record as “marked increase of copper intracellular content in comparison with healthy PBMC”. Further, the GI50 in series [3] was found to be 1.6 ± 0.06 µM; in series [4], 17.2 ± 1 µM; in series [5], 4.2 ± 0.2 µM. For the same compound, the “onset of caspase-12 activation” value was at least 1.5 h in series [6] (RS4;11, CP 2.5 μM) and at least 3 h in series [6] (SEM, CP 2.5 μM).
